Where two headings read alike, the source gives them in different places.
How the values were obtained:
[1] = target: T1, full-length B-Catenin (Uniprot ID P35222) (Homo sapiens, UniProt P35222); test: Alphascreen binding assay (beta-catenin / biotin-TCF4 10-53)
T1 construct: 65 nM full-length B-Catenin (Uniprot ID P35222)
T1 sequence (P35222 1-781): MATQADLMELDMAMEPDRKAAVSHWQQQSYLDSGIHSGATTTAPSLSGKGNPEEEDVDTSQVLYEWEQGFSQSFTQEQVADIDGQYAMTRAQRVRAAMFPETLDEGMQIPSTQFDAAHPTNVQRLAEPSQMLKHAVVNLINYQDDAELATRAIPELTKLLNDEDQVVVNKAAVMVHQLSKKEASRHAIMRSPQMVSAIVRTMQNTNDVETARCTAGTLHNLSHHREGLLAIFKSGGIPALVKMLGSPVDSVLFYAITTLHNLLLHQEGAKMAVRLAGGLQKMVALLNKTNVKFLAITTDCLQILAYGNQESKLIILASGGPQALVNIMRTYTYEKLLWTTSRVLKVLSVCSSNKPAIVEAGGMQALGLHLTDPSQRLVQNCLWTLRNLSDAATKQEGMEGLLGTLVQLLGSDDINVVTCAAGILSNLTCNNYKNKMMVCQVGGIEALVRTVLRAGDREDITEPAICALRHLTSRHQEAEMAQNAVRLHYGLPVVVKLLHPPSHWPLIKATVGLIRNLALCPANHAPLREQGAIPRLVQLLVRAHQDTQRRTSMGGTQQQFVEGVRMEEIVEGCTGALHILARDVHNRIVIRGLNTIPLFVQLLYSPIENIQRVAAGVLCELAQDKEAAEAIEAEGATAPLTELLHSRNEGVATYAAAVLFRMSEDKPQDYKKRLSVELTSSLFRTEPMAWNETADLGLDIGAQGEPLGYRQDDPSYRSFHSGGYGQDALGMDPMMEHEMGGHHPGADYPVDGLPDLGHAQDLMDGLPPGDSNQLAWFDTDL
Summary of the method: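 Final concentrations: 65 nM full-length human β-catenin plus 10 nM biotin-TCF4(10-53) peptide, test peptide 3-fold from 10 uM to 5 nM, preincubated 15 min at 20 °C in Tris pH 8.0/250 mM NaCl buffer. Nickel-chelate AlphaScreen donor/acceptor beads then added for 60 min in the dark; duplicate reads fitted to 1:1 binding model with Hill slope.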

[2] = target: T2, full-length beta-Catenin (Uniprot ID P35222) (Homo sapiens, UniProt P35222); test: Fluorescence polarization IC50 (beta-catenin / 5FAM-TCF4 10-53 competition); assay type: binding
T2 construct: 10 nM full-length beta-Catenin (Uniprot ID P35222)
T2 sequence (P35222 1-781): T1 sequence (P35222 1-781)

[3] = CHI Log D procedure; assay type: physicochemical; conditions: for CHI Log D: pH 7.4; for chromatographic logD: pH 7.4, CHI Log D
[4] = Table E2-1, read-out: beta-Catenin FP IC50
[5] = fluorescence polarization, beta-catenin, read-out: FP EC50

Row | SMILES | EC50 [1] | IC50 [2, 4] | IC50 [2, 5] | CHI Log D [3] | chromatographic logD [3]
1 | CC[C@H](C)[C@H](NC(=O)[C@H](CC(=O)O)NC(=O)[C@H](C)NC(C)=O)C(=O)N[C@]1(C)CCN(C)C(=O)OCC=CCCCCC[C@@](C)(C(=O)N[C@@H](Cc2ccccc2)C(=O)N[C@@H](Cc2c[nH]c3ccccc23)C(=O)N[C@@H](Cc2c[nH]cn2)C(N)=O)NC(=O)[C@H](CCC(N)=O)NC(=O)[C@H](Cc2ccccc2)NC(=O)[C@H](C)NC(=O)[C@H](C)NC(=O)[C@H](CCC(=O)O)NC(=O)[C@H](CC(=O)O)NC1=O [I-66, Ac-Ala-Asp-Ile-RdN-Asp-Glu-Ala-Ala-Phe-Gln-S7-Phe-Trp-His-NH2] | 175 nM | 1090 nM | 1090 nM | 1.259 | 
2 | CC(=O)N1CCC[C@]12CC=CCCCC1(CCCC=CCCCCCC[C@@](C)(C(=O)N[C@@H](Cc3ccccc3)C(=O)N[C@@H](Cc3c[nH]c4ccccc34)C(=O)NC(C)(C)C(N)=O)NC(=O)[C@H](C(C)C)NC(=O)[C@H](Cc3ccccc3)NC(=O)[C@H](C)NC(=O)[C@H](C)NC(=O)[C@H](CCC(=O)O)NC(=O)[C@H](CC(=O)O)NC1=O)NC(=O)[C@H](C)NC(=O)[C@H](CC(=O)O)NC2=O (stereo partly drawn) [I-134, Ac-PL3-Asp-Ala-B5-Asp-Glu-Ala-Ala-Phe-Val-S8-Phe-Trp-Aib-NH2] | 99 nM | 2700 nM | 2700 nM | 2.426 | 
3 | CC[C@H](C)[C@H](NC(=O)[C@H](CC(=O)O)NC(=O)[C@H](C)NC(C)=O)C(=O)N[C@]1(C)CCN(C)C(=O)OCC=CCCCCC[C@@](C)(C(=O)N[C@@H](Cc2ccccc2)C(=O)N[C@@H](Cc2c[nH]c3ccccc23)C(=O)N[C@@H](C)C(N)=O)NC(=O)[C@H](CCC(N)=O)NC(=O)[C@H](Cc2ccccc2)NC(=O)[C@H](C)NC(=O)[C@H](C)NC(=O)[C@H](CCC(=O)O)NC(=O)[C@H](CC(=O)O)NC1=O [I-153, Ac-Ala-Asp-Ile-RdN-Asp-Glu-Ala-Ala-Phe-Gln-S7-Phe-Trp-Ala-NH2] | 153 nM | 2140 nM |  |  | 1.32
4 | CC[C@H](C)[C@@H]1NC(=O)[C@H](CC(=O)O)NC(=O)[C@]2(CC=CCCCC3(CCCC=CCCCCCC[C@@](C)(C(=O)N[C@@H](Cc4ccccc4)C(=O)N[C@@H](Cc4c[nH]c5ccccc45)C(=O)N[C@@H](Cc4c[nH]cn4)C(N)=O)NC(=O)[C@H](CCC(N)=O)NC(=O)[C@H](Cc4ccccc4)NC(=O)[C@H](C)NC(=O)[C@H](C)NC(=O)[C@H](CC(=O)O)NC(=O)[C@H](CC(=O)O)NC3=O)NC1=O)CCCN2C(C)=O (stereo partly drawn) [I-174, Ac-PL3-Asp-Ile-B5-Asp-Asp-Ala-Ala-Phe-Gln-S8-Phe-Trp-His-NH2] | 116 nM | 1760 nM | 1760 nM | 2.242 | 
5 | CC[C@H](C)[C@@H]1NC(=O)[C@H](CC(=O)O)NC(=O)[C@]2(CC=CCCCC3(CCCC=CCCCCCC[C@@](C)(C(=O)N[C@@H](Cc4ccccc4)C(=O)N[C@@H](Cc4c[nH]c5ccccc45)C(=O)N[C@@H](Cc4c[nH]cn4)C(N)=O)NC(=O)[C@H](C(C)C)NC(=O)[C@H](Cc4ccccc4)NC(=O)[C@H](C)NC(=O)[C@H](C)NC(=O)[C@H](CCC(=O)O)NC(=O)[C@H](CC(=O)O)NC3=O)NC1=O)CCCN2C(C)=O (stereo partly drawn) [I-176, Ac-PL3-Asp-Ile-B5-Asp-Glu-Ala-Ala-Phe-Val-S8-Phe-Trp-His-NH2] | 549 nM | 1990 nM | 1990 nM | 2.58 | 
6 | CC[C@H](C)[C@@H]1NC(=O)[C@H](CC(=O)O)NC(=O)[C@]2(CC=CCCCC3(CCCC=CCCCCCC[C@@](C)(C(=O)N[C@@H](Cc4ccccc4)C(=O)N[C@@H](Cc4c[nH]c5ccccc45)C(=O)N[C@@H](CCC(N)=O)C(N)=O)NC(=O)[C@H](CCC(N)=O)NC(=O)[C@H](Cc4ccccc4)NC(=O)[C@H](C)NC(=O)[C@H](C)NC(=O)[C@H](CCC(=O)O)NC(=O)[C@H](CC(=O)O)NC3=O)NC1=O)CCCN2C(C)=O (stereo partly drawn) [I-181, Ac-PL3-Asp-Ile-B5-Asp-Glu-Ala-Ala-Phe-Gln-S8-Phe-Trp-Gln-NH2] | 51 nM | 310 nM | 310 nM | 2.213 | 

The remaining compounds from weak to strong by EC50 [1], led by results:

Row | EC50 [1] | IC50 [2, 4] | IC50 [2, 5] | CHI Log D [3] | chromatographic logD [3] | SMILES
7 | 552 nM | 4840 nM | 4840 nM | 2.245 |  | CC(=O)N1CCC[C@]12CC=CCCCC1(CCCC=CCCCCCC[C@@](C)(C(=O)N[C@@H](Cc3ccccc3)C(=O)N[C@@H](Cc3c[nH]c4ccccc34)C(=O)N[C@@H](CCC(N)=O)C(N)=O)NC(=O)[C@H](C(C)C)NC(=O)[C@H](Cc3ccccc3)NC(=O)[C@H](C)NC(=O)[C@H](C)NC(=O)[C@H](CCC(N)=O)NC(=O)[C@H](CC(=O)O)NC1=O)NC(=O)[C@H](C)NC(=O)[C@H](CC(=O)O)NC2=O (stereo partly drawn) [I-127, Ac-PL3-Asp-Ala-B5-Asp-Gln-Ala-Ala-Phe-Val-S8-Phe-Trp-Gln-NH2]
8 | 398 nM | 2770 nM |  |  | 1.36 | CC[C@H](C)[C@H](NC(=O)[C@H](CC(=O)O)NC(=O)[C@H](C)NC(C)=O)C(=O)N[C@]1(C)CCN(C)C(=O)OCC=CCCCCC[C@@](C)(C(=O)N[C@@H](Cc2ccccc2)C(=O)N[C@@H](Cc2c[nH]c3ccccc23)C(N)=O)NC(=O)[C@H](CCC(N)=O)NC(=O)[C@H](Cc2ccccc2)NC(=O)[C@H](C)NC(=O)[C@H](C)NC(=O)[C@H](CCC(=O)O)NC(=O)[C@H](CC(=O)O)NC1=O [I-148, Ac-Ala-Asp-Ile-RdN-Asp-Glu-Ala-Ala-Phe-Gln-S7-Phe-Trp-NH2]
9 | 156 nM | 1600 nM | 1600 nM | 1.611 |  | CC[C@H](C)[C@@H]1NC(=O)[C@H](CC(=O)O)NC(=O)[C@]2(CC=CCCCC3(CCCC=CCOC(=O)N(C)CCC[C@@](C)(C(=O)N[C@@H](Cc4ccccc4)C(=O)N[C@@H](Cc4c[nH]c5ccccc45)C(=O)N[C@@H](Cc4c[nH]cn4)C(N)=O)NC(=O)[C@H](CCC(N)=O)NC(=O)[C@H](Cc4ccccc4)NC(=O)[C@H](C)NC(=O)[C@H](C)NC(=O)[C@H](CC(=O)O)NC(=O)[C@H](CC(=O)O)NC3=O)NC1=O)CCCN2C(C)=O (stereo partly drawn) [I-188, Ac-PL3-Asp-Ile-B5-Asp-Asp-Ala-Ala-Phe-Gln-SeN-Phe-Trp-His-NH2]
10 | 152 nM | 1630 nM | 1630 nM | 1.913 |  | CC(=O)N1CCC[C@]12CC=CCCCC1(CCCC=CCCCCCC[C@@](C)(C(=O)N[C@@H](Cc3ccccc3)C(=O)N[C@@H](Cc3c[nH]c4ccccc34)C(=O)N[C@@H](Cc3c[nH]cn3)C(N)=O)NC(=O)[C@H](CCC(N)=O)NC(=O)[C@H](Cc3ccccc3)NC(=O)[C@H](C)NC(=O)[C@H](C)NC(=O)[C@H](CCC(=O)O)NC(=O)[C@H](CC(=O)O)NC1=O)NC(=O)[C@H](C)NC(=O)[C@H](CC(=O)O)NC2=O (stereo partly drawn) [I-178, Ac-PL3-Asp-Ala-B5-Asp-Glu-Ala-Ala-Phe-Gln-S8-Phe-Trp-His-NH2]
11 | 88 nM | 56 nM |  | 2.193 |  | CC[C@H](C)[C@@H]1NC(=O)[C@H](CC(=O)O)NC(=O)[C@]2(CC=CCCCC3(CCCC=CCCCCCC[C@@](C)(C(=O)N[C@@H](Cc4ccccc4)C(=O)N[C@@H](Cc4c[nH]c5ccccc45)C(=O)N[C@@H](CCC(N)=O)C(N)=O)NC(=O)[C@H](CCC(N)=O)NC(=O)[C@H](Cc4ccccc4)NC(=O)[C@H](C)NC(=O)[C@H](C)NC(=O)[C@H](CCC(=O)O)NC(=O)[C@H](CC(=O)O)NC3=O)NC1=O)CCCN2C(C)=O (stereo partly drawn) [I-180, Ac-PL3-Asp-Ile-B5-Asp-Glu-Ala-Ala-Phe-Gln-S8-Phe-Trp-Gln-NH2]
12 | 83 nM | 1980 nM |  |  | 2.11 | CC(=O)N1CCC[C@]12CC=CCCCC1(CCCC=CCCCCCC[C@@](C)(C(=O)N[C@@H](Cc3ccccc3)C(=O)N[C@@H](Cc3c[nH]c4ccccc34)C(=O)N[C@@H](CCC(N)=O)C(N)=O)NC(=O)[C@H](C(C)C)NC(=O)[C@H](Cc3ccccc3)NC(=O)[C@H](C)NC(=O)[C@H](C)NC(=O)[C@H](CCCC(=O)O)NC(=O)[C@H](CC(=O)O)NC1=O)NC(=O)[C@H](C)NC(=O)[C@H](CC(=O)O)NC2=O (stereo partly drawn) [I-129, Ac-PL3-Asp-Ala-B5-Asp-Aad-Ala-Ala-Phe-Val-S8-Phe-Trp-Gln-NH2]
13 | 66 nM | 147 nM |  |  | 2.12 | CC(=O)N1CCC[C@]12CC=CCCCC1(CCCC=CCCCCCC[C@@](C)(C(=O)N[C@@H](Cc3ccccc3)C(=O)N[C@@H](Cc3csc4ccccc34)C(=O)N[C@@H](CCC(N)=O)C(N)=O)NC(=O)[C@H](C(C)C)NC(=O)[C@H](Cc3ccccc3)NC(=O)[C@H](C)NC(=O)[C@H](C)NC(=O)[C@H](CCC(=O)O)NC(=O)[C@H](CC(=O)O)NC1=O)NC(=O)[C@H](C)NC(=O)[C@H](CC(=O)O)NC2=O (stereo partly drawn) [I-144, Ac-PL3-Asp-Ala-B5-Asp-Glu-Ala-Ala-Phe-Val-S8-Phe-BztA-Gln-NH2]
